What was measured:
Details in all cases: 72 h
Caco-2 [1] = experiment: cell viability relative to DMSO; higher = less toxic
Calu-3 [2] = experiment: as above
HepG2 [3] = experiment: as above
U2OS [4] = experiment: as above
Vero E6 [5] = experiment: as above
Caco-2 [6] = experiment: relative viability EC50 (midpoint between 100% and the lowest measured viability); higher = less toxic
Calu-3 [7] = experiment: as above
HepG2 [8] = experiment: as above
U2OS [9] = experiment: as above
Vero E6 [10] = experiment: as above
Caco-2 [11] = experiment: drug sensitivity score (DSS) for viability; higher = more toxic; extreme values may be limits of the assay
Calu-3 [12] = experiment: as above
HepG2 [13] = experiment: as above
U2OS [14] = experiment: as above
Vero E6 [15] = experiment: as above

SMILES | cell viability (Caco-2 [1]; 1 nM) | cell viability (Caco-2 [1]; 10 nM) | cell viability (Caco-2 [1]; 100 nM) | cell viability (Caco-2 [1]; 1000 nM) | cell viability (Caco-2 [1]; 10000 nM) | cell viability (Calu-3 [2]; 1 nM) | cell viability (Calu-3 [2]; 10 nM) | cell viability (Calu-3 [2]; 100 nM) | cell viability (Calu-3 [2]; 1000 nM) | cell viability (Calu-3 [2]; 10000 nM) | cell viability (HepG2 [3]; 1 nM) | cell viability (HepG2 [3]; 10 nM) | cell viability (HepG2 [3]; 100 nM) | cell viability (HepG2 [3]; 1000 nM) | cell viability (HepG2 [3]; 10000 nM) | cell viability (U2OS [4]; 1 nM) | cell viability (U2OS [4]; 10 nM) | cell viability (U2OS [4]; 100 nM) | cell viability (U2OS [4]; 1000 nM) | cell viability (U2OS [4]; 10000 nM) | cell viability (Vero E6 [5]; 1 nM) | cell viability (Vero E6 [5]; 10 nM) | cell viability (Vero E6 [5]; 100 nM) | cell viability (Vero E6 [5]; 1000 nM) | cell viability (Vero E6 [5]; 10000 nM) | relative viability EC50 (Caco-2 [6]) | relative viability EC50 (Calu-3 [7]) | relative viability EC50 (HepG2 [8]) | relative viability EC50 (U2OS [9]) | relative viability EC50 (Vero E6 [10]) | drug sensitivity score (Caco-2 [11]) | drug sensitivity score (Calu-3 [12]) | drug sensitivity score (HepG2 [13]) | drug sensitivity score (U2OS [14]) | drug sensitivity score (Vero E6 [15])
CCCN(CCC)[C@H]1CCc2cccc(O)c2C1 [8-hydroxy-DPAT] | 101% | 101% | 98% | 98.8% | 101% | 99.2% | 105% | 97.4% | 101% | 102% | 102% | 102% | 93.6% | 109% | 92.2% | 96.9% | 98% | 99.1% | 102% | 99.9% | 97% | 94.5% | 99.2% | 89.3% | 104% | > 10 µM | > 10 µM | > 10 µM | > 10 µM | > 10 µM | 0 | 0 | 0 | 0 | 0
NCCCCCCCCCCNS(=O)(=O)c1cccc2c(Cl)cccc12 [A-7] | 108% | 95.5% | 107% | 99.7% | 97.3% | 97.8% | 98.8% | 96.5% | 95.9% | 95.1% | 112% | 102% | 98.6% | 108% | 95.8% | 99.2% | 106% | 97.4% | 99.8% | 93.9% | 97.3% | 98.4% | 95.2% | 101% | 94.7% | > 10 µM | > 10 µM | > 10 µM | > 10 µM | > 10 µM | 0 | 0 | 0 | 0 | 0
N[C@@H]1CCN(c2cccnc2)C1 [ABT-202] | 101% | 102% | 96% | 95.7% | 106% | 93.1% | 90.3% | 99.8% | 97.5% | 99.3% | 97.8% | 99% | 104% | 105% | 109% | 96.1% | 98.8% | 96.1% | 102% | 103% | 102% | 97.4% | 104% | 94.5% | 108% | > 10 µM | > 10 µM | > 10 µM | > 10 µM | > 10 µM | 0 | 0 | 0 | 0 | 0
O=C1COc2c(CCNCCN(C(=O)CCNCCc3ccc(Cl)c(Cl)c3)C3CCCCC3)ccc(O)c2N1 [AZ505] | 104% | 98.4% | 95.8% | 97.8% | 97.9% | 88.2% | 89.6% | 108% | 102% | 105% | 95.9% | 98.6% | 118% | 97.2% | 89.4% | 102% | 101% | 99.2% | 103% | 91.2% | 107% | 99.4% | 104% | 99.7% | 109% | > 10 µM | > 10 µM | > 10 µM | > 10 µM | > 10 µM | 0 | 0 | 0 | 0 | 0
